According to patent publication US20130040951A9, “PROPHYLACTIC OR THERAPEUTIC AGENT FOR CANCER” (Takeda Pharmaceutical Company Limited, priority 2009, published 2013):

What was measured:
[1] = biological target: T1, GST-ERRα ligand-binding domain (Homo sapiens, UniProt P11474); assay: HTRF assay system using ERRα ligand-binding domain (biotinylated SRC-1 (676-700) peptide); type: biochemical; conditions: compound final concentration 3 μM, room temperature 2 hr; 615/665 ratio value; no compound = 0%, 10 μM XCT-790 = 100%; read-out: inhibition rate (%) at 3 μM
T1 sequence (P11474 193-421 limits assumed): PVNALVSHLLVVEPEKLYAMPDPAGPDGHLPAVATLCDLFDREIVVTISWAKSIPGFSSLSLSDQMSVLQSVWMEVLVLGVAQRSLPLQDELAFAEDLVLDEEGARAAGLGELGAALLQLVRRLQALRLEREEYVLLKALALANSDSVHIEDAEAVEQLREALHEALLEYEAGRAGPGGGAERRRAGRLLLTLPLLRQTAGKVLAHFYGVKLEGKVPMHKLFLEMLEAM
Description: Compound Evaluation in HTRF Assay System Using ERRα Ligand-Binding Domain
An assay buffer (25 mM HEPES, 100 mM NaCl, 1 mM DTT, 0.1% BSA) containing 5 nM GST-ERRα ligand-binding domain (final concentration 1.25 nM) was added to a 384 well plate, then […] XCT-790 (final concentration 10 μM), or 12 μM compound (final concentration 3 μM) was added. Furthermore, an assay buffer containing XL665 conjugated Streptavidine, Eu^3+criptate conjugated GST antibody and 200 nM biotinylated SRC-1 (676-700) (final concentration 100 nM) was added, and the mixture was reacted at room temperature for 2 hr. Using Multiplate reader Envision (Perkin Elmer Inc.), after excitation at 320 nm, fluorescence values at 615 nm and 665 nm were measured. The inverse agonist activity of the compound was calculated in percentage with the 615/665 ratio value inhibited by no addition of compound as 0%, and with addition of final concentration 10 μM of XCT-790 (N-[5-(trifluoromethyl)-1,3,4-thiadiazol-2-yl]-2-cyano-3-[3-methoxy-4-[2,4-di(trifluoromethyl)benzyloxy]phenyl]propenamide) as 100%.

[2] = biological target: T2, fusion protein containing GAL4-DNA-binding domain and ERR full-length (Homo sapiens, UniProt P11474); assay: Reporter assay system using 293T cells (GAL4-ERR luciferase, inverse agonist activity); type: cell-based; conditions: HEK-293T; compound final concentration 3 μM, 1 day; luciferase activity in 293T cells; no compound = 0%, 10 μM XCT-790 = 100%; read-out: inhibition rate (%) at 3 μM
T2 construct: expressed in transfected cells; host or cells: 293T cells
T2 sequence (P11474 1-423): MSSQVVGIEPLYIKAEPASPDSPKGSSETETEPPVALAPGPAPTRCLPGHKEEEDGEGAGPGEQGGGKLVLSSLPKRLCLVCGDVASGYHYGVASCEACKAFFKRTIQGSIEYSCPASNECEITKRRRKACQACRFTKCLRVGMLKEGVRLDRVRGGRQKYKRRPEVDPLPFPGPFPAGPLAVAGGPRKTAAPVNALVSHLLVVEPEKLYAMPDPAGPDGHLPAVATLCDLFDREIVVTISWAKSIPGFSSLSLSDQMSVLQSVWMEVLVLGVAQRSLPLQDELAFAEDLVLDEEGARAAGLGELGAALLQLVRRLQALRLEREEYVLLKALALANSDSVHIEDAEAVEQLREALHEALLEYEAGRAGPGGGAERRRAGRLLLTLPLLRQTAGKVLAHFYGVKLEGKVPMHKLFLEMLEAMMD
Description: Compound Evaluation in Reporter Assay System Using 293T Cells
293T cells were seeded in a 150 cm^2 flask by 6,000,000 cells, and cultured in a medium (DMEM medium containing 10% inactivated Fetal Bovine Serum sterile filtered (FBS), 50 μg/ml Gentamicin, 10 mM HEPES buffer (pH 7.4)) at 37° C. in the presence of 5% CO2 for 1 day.
Then, vector DNA having a gene encoding a fusion protein containing GAL4-DNA-binding domain and ERR full-length and a vector DNA wherein luciferase gene is fused at the downstream of GAL4-binding sequence were cotransfected by a lipofection method, and the cells were cultured at 37° C. in the presence of 5% CO2 for 1 day. The cells were recovered, sown in a 384 well plate by 15,000 cells, and cultured at 37° C. in the presence of 5% CO2 for 3 hr. Furthermore, 50 μM XCT-790 (final concentration 10 μM) or 15 μM compound (final concentration 3 μM) was added, and the cells were cultured at 37° C. in the presence of 5% CO2 for 1 day. The luciferase activity was measured by using a multiplate reader Envision (Perkin Elmer Inc.). The inverse agonist activity of the compound was calculated in percentage with the luciferase activity inhibited by no addition of compound as 0%, and with addition of final concentration 10 μM of XCT-790 (N-[5-(trifluoromethyl)-1,3,4-thiadiazol-2-yl]-2-cyano-3-[3-methoxy-4-[2,4-di(trifluoromethyl)benzyloxy]phenyl]propenamide) as 100%.

[3] = system: ES-2 ovarian cancer cells; assay: Cell proliferation inhibitory test (CCK-8); type: cell-based; conditions: compound final concentration 10 μM, 72 hr; CCK-8 absorbance at 450 nm; DMSO alone = 0%, cell-free well with medium only = 100%; read-out: inhibition rate (%) at 10 μM
Description: Cell Proliferation Inhibitory Test
ES-2 ovarian cancer cells were seeded in a 96 well plate at 1×10^3 cells/well, and incubated at 37° C. in the presence of 5% CO2 for 24 hr. Then, the compound was added at a final concentration of 10 μM, and the cells were cultured at 37° C. in the presence of 5% CO2 for 72 hr. For activity measurement of viable cells, a CCK-8 reagent (Cell Counting Kit-8, DOJINDO) was added, the cells were incubated at 37° C. for 1.5 hr, and the absorbance at 450 nm was measured by a microplate reader. Assuming the dehydrogenase activity in the DMSO alone addition group as 0%, and that in a cell-free well containing only a medium as 100%, the dehydrogenase activity of the compound addition group was calculated in percentage.

inhibition at 3 µM [1] [%] | inhibition at 3 µM [2] [%] | Compound | inhibition at 10 µM [3] [%]
98 | 89 | CCN1C(=N)/C(=C/c2ccc(Oc3ccc(C#N)cc3C(F)(F)F)c(OC)c2)NC1=O [Example 25, 4-{4-[(Z)-(1-ethyl-5-imino-2-oxoimidazolidin-4-ylidene)methyl]-2-methoxyphenoxy}-3-(trifluoromethyl)benzonitrile] | 61
103 | 91 | CCN1C(=N)/C(=C/c2ccc(OCc3ccc(C(F)(F)F)cc3C(F)(F)F)c(OC)c2)N(C)C1=O [Example 32, (4Z)-4-[(4-{[2,4-bis(trifluoromethyl)benzyl]oxy}-3-methoxyphenyl)methylidene]-1-ethyl-5-imino-3-methylimidazolidin-2-one] | 98
105 | 88 | COc1cc(/C=C2\SC(=O)N=C2NCCC2CCCN2C)ccc1Oc1ccc(C#N)cc1C(F)(F)F (stereo not drawn) [Example 93, 4-(2-methoxy-4-{(Z)-[4-{[2-(1-methylpyrrolidin-2-yl)ethyl]amino}-2-oxo-1,3-thiazol-5(2H)-ylidene]methyl}phenoxy)-3-(trifluoromethyl)benzonitrile] | 101
107 | 90 | CCN(CC)CCNC1=NC(=O)S/C1=C\c1ccc(Oc2ccc(C(F)(F)F)cc2Cl)c(OC)c1 [Example 94, (5Z)-5-({4-[2-chloro-4-(trifluoromethyl)phenoxy]-3-methoxyphenyl}methylidene)-4-{[2-(diethylamino)ethyl]amino}-1,3-thiazol-2(5H)-one] | 100
114 | 87 | COc1cc(/C=C2\SC(=O)N=C2NCCC2CCCN2C)ccc1Oc1ccc(C#N)c2ccccc12 (stereo not drawn) [Example 96, 4-(2-methoxy-4-{(Z)-[4-{[2-(1-methylpyrrolidin-2-yl)ethyl]amino}-2-oxo-1,3-thiazol-5(2H)-ylidene]methyl}phenoxy)naphthalene-1-carbonitrile] | 102
105 | 93 | COc1cc(/C=C2\SC(=O)N=C2NCC(C)(C)O)ccc1Oc1ccc(C#N)cc1C(F)(F)F [Example 116, 4-{4-[(Z)-{4-[(2-hydroxy-2-methylpropyl)amino]-2-oxo-1,3-thiazol-5(2H)-ylidene}methyl]-2-methoxyphenoxy}-3-(trifluoromethyl)benzonitrile] | 101
92 | 94 | CCN1C(=N)/C(=C\c2ccc(Oc3ccc(C#N)cc3C(F)(F)F)c(OC)c2)N(C)C1=O [Example 143, 4-{4-[(E)-(1-ethyl-5-imino-3-methyl-2-oxoimidazolidin-4-ylidene)methyl]-2-methoxyphenoxy}-3-(trifluoromethyl)benzonitrile] | 88
93 | 95 | CCN1C(=N)/C(=C/c2ccc(Oc3ccc(C#N)cc3C(F)(F)F)c(OC)c2)N(C)C1=O [Example 145, 4-{4-[(Z)-(1-ethyl-5-imino-3-methyl-2-oxoimidazolidin-4-ylidene)methyl]-2-methoxyphenoxy}-3-(trifluoromethyl)benzonitrile] | 98
